From patent publication US20130004579A1, “Use of Plant Lectins to Target Leukocytes” (priority 2011, published 2013)

Assays:
C57BL/6 BMDCs = test: Flow cytometry uptake of lectin-conjugated NR-PS particles by live BMDCs (Example 6); type: cell-based, mouse; details: 30 minute incubation; lectin 100 μg/ml
Procedure: (§1) C57BL/6 BMDCs and iBMMs were isolated and cultured as described above at a density of 1×10^6 cells/ml in a 96 well U-bottomed plate in 100 μl complete RPMI 1640 medium with 10 ng/ml GM-CSF. Cells were stimulated for 10 or 30 minutes at 37° C. with NR-PS particles (5, 50 or 100 μg/ml) or NR-PS particles (5, 50 or 100 μg/ml) conjugated with biotinylated UEA-1 (100 μg/ml), biotinylated SBA (100 μg/ml), biotinylated PHA-E (100 μg/ml), biotinylated PHA-L (100 μg/ml) or biotinylated DSL (100 μg/ml). Cells were then scraped into FACS tubes, washed in FACS buffer, centrifuged at 1200 rpm for 5 minutes (×3) and resuspended in 200 μl of FACS buffer.
(§2) A FACSCanto™ II flow cytometer (BD Biosciences, San Jose, Calif.), FACSDiva™ software (BD Biosciences, San Jose, Calif.) and FlowJo™ software (Treestar, Inc., Ashland, Oreg.) were used to analyze the uptake of particles by various cell populations. Live cells were gated on by their FSC and SSC properties in order to estimate the degree of cell death. Particle uptake was quantified by determining the percentage of live cells taking up particles. Unstimulated cells were used as controls.

[1] = test system: Bone marrow-derived macrophages (iBMMs); test: Flow cytometry uptake of lectin-conjugated NR-PS particles by live iBMMs (Example 6); type: cell-based; details: 10 minute incubation; lectin 100 μg/ml
Procedure: as §1, §2

[2] = test system: C57BL/6 splenocytes, T cells (CD3+); test: Lectin-conjugated NR-PS particle uptake by splenocyte populations (Example 8): T cells; type: cell-based, mouse; details: lectin 100 μg/ml; live cells
Procedure: (§3) Splenocytes were isolated from C57BL/6 mice and cultured as described above, at a density of 2×10^6 cells/ml in a 96 well U-bottomed plate, in 100 μl of complete RPMI 1640 medium. Cells were incubated for 5, 10 or 30 minutes at 37° C. with NR-PS particles (5, 50 or 100 μg/ml) or NR-PS particles (5, 50 or 100 μg/ml) conjugated with biotinylated UEA-1 (100 μg/ml), biotinylated SBA (100 μg/ml), biotinylated PHA-E ([…]), biotinylated PHA-L (100 μg/ml) or biotinylated DSL (100 μg/ml). Cells were transferred to FACS tubes, washed in FACS buffer, centrifuged at 1200 rpm for 5 minutes (×3) and resuspended in 100 μl FACS buffer. Cells were then incubated with Fc Block™ (2.5 μg/ml; BD Pharmingen, San Diego, Calif.) for 10 minutes. Determination of cell types was achieved by labelling characteristic cell surface markers with fluorescently-labelled antibodies—T cells were determined as being CD3^+, dendritic cells CD11c^+, macrophages F4/80^+, granulocytes Gr1^+ and B cells CD19^+. Cells were incubated on ice for 30 minutes in the dark and then washed in FACS buffer and centrifuged at 1200 rpm for 5 minutes (×3). After washing, cells were resuspended in 200 μl of FACS buffer.
(§4) A CyAn™ ADP flow cytometer (Beckman Coulter, Inc., Miami, Fla.), Summit™ software (Dako North America, Inc., Carpinteria, Calif.) and FlowJo™ software (Treestar, Inc., Ashland, Oreg.) were used to analyze the uptake of particles by various cells populations. Live cells were gated on by their FSC and SSC properties in order to roughly estimate the degree of cell death. Particle uptake was calculated for each cell subtype from the data in FIGS. 11A-11D, showing the percentages of both cell marker- and particle-positive cells within the live cell population. Unstimulated cells were used as controls.

[3] = test system: C57BL/6 splenocytes, dendritic cells (CD11c+); test: Lectin-conjugated NR-PS particle uptake by splenocyte populations (Example 8): dendritic cells; type: cell-based, mouse; details: lectin 100 μg/ml; live cells
Procedure: as §3, §4

[4] = test system: C57BL/6 splenocytes, macrophages (F4/80+); test: Lectin-conjugated NR-PS particle uptake by splenocyte populations (Example 8): macrophages; type: cell-based, mouse; details: lectin 100 μg/ml; live cells
Procedure: as §3, §4

[5] = test system: C57BL/6 splenocytes, granulocytes (Gr1+); test: Lectin-conjugated NR-PS particle uptake by splenocyte populations (Example 8): granulocytes; type: cell-based, mouse; details: lectin 100 μg/ml; live cells
Procedure: as §3, §4

[6] = test system: C57BL/6 splenocytes, B cells (CD19+); test: Lectin-conjugated NR-PS particle uptake by splenocyte populations (Example 8): B cells; type: cell-based, mouse; details: lectin 100 μg/ml; live cells
Procedure: as §3, §4

[7] = test system: IL-1α production by bone marrow-derived dendritic cells (BMDCs); test: IL-1α ELISA on supernatants of BMDCs incubated with particles; type: cell-based, mouse; details: C57BL/6 BMDCs; LPS 1 ng/ml; serial dilutions SC-PS 31.25 μg/ml to 1 mg/ml with lectin 1.56 to 50 μg/ml; vs unconjugated SC-PS
Procedure: (§5) BMDCs were isolated and cultured as described in Example 2 at a density of 6.25×10^5 cells/ml in 96 well U-bottomed microplates. Cells were stimulated with a Toll-like receptor (TLR) ligand (LPS or Pam2CSK4) for 6 hours. Cells were then incubated with either medium, alum/SC-PS particles, alum/SC-PS particles conjugated with UEA-1, alum/SC-PS particles conjugated with UEA-1 mimetic or with UEA-1 alone for 24 hours. After incubation, supernatants from BMDCs were collected and cytokine concentrations measured by ELISA. Antibody pairs specific for each cytokine were used for immunoassaying. The following cytokines were measured by immunoassay: IL-1α, IL-1β.
(§6) Capture antibodies were obtained from BD Pharmingen (San Diego, Calif.), BioLegend (San Diego, Calif.) and R&D Systems, Inc. (Minneapolis, Minn.) and prepared according to the manufacturer's specifications (see Table 2) and a volume of 40 μl/well added to high-binding 96 well ELISA plates. Plates were then incubated for 2 hours at 37° C. or overnight at 4° C. After incubation, plates were washed in PBS-T (×3) and tapped dry. Plates were then blocked with the appropriate blocking solution (see Table 2) and incubated for 2 hours at 37° C. After incubation plates were washed in PBS-T (×3) and tapped dry. Supernatants were transferred from cell culture plates to fresh 96 well plates. All supernatants were stored at −20° C. when not in use. Cell supernatants were applied to plates at the indicated dilutions (see Table 2). A blank triplicate was left on each plate containing the diluent as a blank. Standards were prepared at the starting concentration in the recommended diluent as specified by the manufacturer and transferred to a 96 well plate and serial dilutions (1:2) performed (see Table 2). All standards and samples were applied to plates at 40 μl/well total volume for incubation overnight at 4° C. After incubation plates were washed with PBS-T (×5) and tapped dry. […] Plates were then stopped by the addition of 20 μl/well of 1M H2SO4 and read. […]

[8] = test system: IL-1β production by bone marrow-derived dendritic cells (BMDCs); test: IL-1β ELISA on supernatants of BMDCs incubated with particles; type: cell-based, mouse; details: C57BL/6 BMDCs; LPS 1 ng/ml; serial dilutions SC-PS 31.25 μg/ml to 1 mg/ml with lectin 1.56 to 50 μg/ml; vs unconjugated SC-PS
Procedure: as §5, §6

Row | Molecule | percentage of live BMDCs found to have taken up particles (C57BL/6 BMDCs) [%] | percentage of live iBMMs found to have taken up particles [1] [%] | percentage of T cells found to have taken up particles [2] [%] | percentage of dendritic cells found to have taken up particles [3] [%] | percentage of macrophages found to have taken up particles [4] [%] | percentage of granulocytes found to have taken up particles [5] [%] | percentage of B cells found to have taken up particles [6] [%] | TLR-4 agonist-primed IL-1α production [7] | TLR-4 agonist-primed IL-1β production [8]
1 | NR-PS particles conjugated with biotinylated PHA-E: Nile Red streptavidin-coated polystyrene particles conjugated with biotinylated Phaseolus vulgaris erthyroagglutinin | 89.7 | 91.0 | 18.1 | 67.7 | 79.4 | 74.0 | 45.5 |  | 
2 | NR-PS particles conjugated with biotinylated PHA-L: Nile Red streptavidin-coated polystyrene particles conjugated with biotinylated Phaseolus vulgaris leukoagglutinin | 89.6 | 79.6 | 62.4 | 79.0 | 89.9 | 80.7 | 80.5 |  | 
3 | NR-PS particles conjugated with biotinylated SBA: Nile Red streptavidin-coated polystyrene particles conjugated with biotinylated soybean agglutinin | 83.2 | 93.4 | 6.4 | 56.3 | 84.8 | 65.6 | 70.8 |  | 
4 | PNA: SC-PS particles conjugated with biotinylated peanut agglutinin (conjugate, UniProt P02872 24-273, looked up, biotinylated, on streptavidin polystyrene particles, SC-PS particles conjugated with biotinylated peanut agglutinin) Galactose-binding lectin: AETVSFNFNSFSEGNPAINFQGDVTVLSNGNIQLTNLNKVNSVGRVLYAMPVRIWSSATGNVASFLTSFSFEMKDIKDYDPADGIIFFIAPEDTQIPAGSIGGGTLGVSDTKGAGHFVGVEFDTYSNSEYNDPPTDHVGIDVNSVDSVKTVPWNSVSGAVVKVTVIYDSSTKTLSVAVTNDNGDITTIAQVVDLKAKLPERVKFGFSASGSLGGRQIHLIRSWSFTSTLITTTRRSIDNNEKKIMNMASA |  |  |  |  |  |  |  | increased IL-1α production across all five of the serial dilutions | increased
